# Experimental data from PubChem BioAssay (NCI).
#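 Exposure lasted 48 hours, with cells grown in 96-well plates and compounds tested at five concentrations. TGI: total growth inhibition.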
# How the values were obtained:
# Test in all cases: DTP human tumour cell line panel, 48 h
# [1] = system: HCT-116 colon
# [2] = system: MALME-3M melanoma
# [3] = system: KM20L2 colon
# [4] = system: SNB-78 CNS
# [5] = system: CAKI-1 renal
# [6] = system: NCI-H522 lung
# [7] = system: SR leukemia
# [8] = system: OVCAR-3 ovarian
# [9] = system: HOP-18 NSCLC
# [10] = system: LXFL 529 NSCLC
# [11] = system: DU-145 prostate
# [12] = system: NCI/ADR-RES ovarian
SMILES,TGI [1],TGI [2],TGI [3],TGI [4],TGI [5],TGI [6],TGI [7],TGI [8],TGI [9],TGI [10],TGI [11],TGI [12]
COC(=O)CC(=O)OC1C[C@@H]2CCC3C(C)(C)CCC[C@]3(C)C23CC[C@@]1(C)C3 (some centres not stated),31.4 µM,32.7 µM,37.6 µM,42.5 µM,30.5 µM,25.7 µM,> 100 µM,30.7 µM,,,,
N#C/C(=C/c1ccc([N+](=O)[O-])o1)c1ccccc1,> 100 µM,> 100 µM,> 100 µM,> 100 µM,> 100 µM,> 100 µM,> 100 µM,> 100 µM,> 100 µM,> 100 µM,,
O=C1CCNC/C1=C\c1ccccc1,47.4 µM,,28.4 µM,> 100 µM,> 100 µM,23.4 µM,> 100 µM,54.8 µM,,34.5 µM,,
CNC(=O)OC1/C(C)=C\C(C)C(O)C(OC)CC(C)CC2=C(OC)C(=O)C=C(C2=O)N(C)C(=O)/C(C)=C/C=C\C1OC (configuration not stated),21.1 µM,27.1 µM,15.5 µM,30.3 µM,20.8 µM,6.09 µM,,16 µM,22.7 µM,19.6 µM,> 41.8 µM,62 µM
O=C1N[C@@H]([C@H]2CC[C@H](Cl)CN2)C(=O)N[C@H]1[C@H]1CC[C@H](Cl)CN1,32.7 µM,8.59 µM,63.9 µM,87.8 µM,3.06 µM,4.06 µM,6.18 µM,7.61 µM,139 µM,,23.8 µM,10.4 µM
O=S(c1ccc(O)cc1)c1ccc(O)cc1,> 100 µM,> 100 µM,> 100 µM,,> 100 µM,> 100 µM,,> 100 µM,,,,
CCCC(O)c1ccc2[nH]c3c(C)cc([N+](=O)[O-])c(C)c3c2c1 (configuration not stated),> 100 µM,> 100 µM,,> 100 µM,> 100 µM,> 100 µM,> 100 µM,> 100 µM,> 100 µM,,,
COc1ccc(N2C(=O)[C@@H]3[C@@H]4CC(C)CC[C@@H]4c4c([nH]c5ccccc45)[C@@H]3C2=O)cc1 (some centres not stated),20 µM,> 100 µM,> 100 µM,27.2 µM,> 72.9 µM,> 55 µM,> 25.9 µM,37.2 µM,14 µM,> 88 µM,,
COC(OC)c1cccc2c1C(=O)CCC1(CC2)OCCCCO1,> 100 µM,> 100 µM,> 100 µM,> 100 µM,> 100 µM,> 100 µM,,> 100 µM,> 100 µM,> 100 µM,,
COC1=CC(=O)C2(C=C1OC)OC[C@H]1Oc3c(ccc4c3C=CC(C)(C)O4)C(=O)[C@H]12 (some centres not stated),> 100 µM,> 100 µM,> 100 µM,> 100 µM,,51.5 µM,,> 100 µM,,> 100 µM,,
CN1C/C(=C\c2ccccc2)C2=NN(C(N)=S)[C@H](c3ccccc3)[C@@H]2C1,> 100 µM,> 100 µM,> 100 µM,> 100 µM,,> 100 µM,> 100 µM,> 100 µM,,> 100 µM,,
CC(=O)OC1CCC2(C)C(CCC3C2CCC2(C)C(c4ccc(=O)oc4)C(OC(C)=O)CC32O)C1 (configuration not stated),0.036 µM,0.017 µM,0.092 µM,0.112 µM,0.0194 µM,0.025 µM,,0.0235 µM,0.068 µM,,,0.0555 µM
O=C1OCc2nc3c(c(-c4ccccc4C(F)(F)F)c21)C(=O)OC3,> 100 µM,> 100 µM,> 100 µM,> 100 µM,,> 100 µM,> 100 µM,> 100 µM,> 100 µM,> 100 µM,,
Cc1cc2c3ccccc3n3c2c2c1OC1(C)CCC(C2C1)C3(C)C (configuration not stated),> 25 µM,> 25 µM,> 25 µM,> 25 µM,,> 25 µM,> 25 µM,> 25 µM,,> 25 µM,,
O=C(CC(C(=O)c1ccsc1)c1cccs1)c1cccs1 (configuration not stated),> 100 µM,> 100 µM,> 100 µM,> 100 µM,,> 100 µM,> 100 µM,> 100 µM,,> 100 µM,,
CCN(CC)C(=O)Cc1[nH][nH]c(=O)c1C(=O)N(CC)CC,> 100 µM,> 100 µM,> 100 µM,> 100 µM,,> 100 µM,> 100 µM,> 100 µM,> 100 µM,> 100 µM,,
CCOC(=O)CN(CC)C(=O)NC12CC3CC(CC(C3)C1)C2,522 µM,378 µM,471 µM,709 µM,483 µM,493 µM,,512 µM,609 µM,,,> 680 µM
Cc1c(CCCl)c(Cl)n2c(nc3ccccc32)c1C#N,0.891 µM,2.62 µM,2.11 µM,> 100 µM,2.25 µM,1.46 µM,0.649 µM,2.82 µM,3.95 µM,1.63 µM,4.56 µM,
O=C1C=C2SC3C[C@@]24CC1(O)[N+]1=c2c4c(c(O)c4c2=C(C=N4)CC1)N3,0.492 µM,,1.08 µM,4.21 µM,4 µM,0.789 µM,,0.515 µM,3.9 µM,,,2.78 µM
Cc1[nH]c2c(C)c3c([nH]c4ccc(Cl)cc43)c(C)c2c(=O)c1C,11.3 µM,72.8 µM,,> 100 µM,40.2 µM,12.9 µM,8.19 µM,18.9 µM,> 100 µM,,> 100 µM,60.5 µM
O=C1OCOC2(CCCC2)C1c1ccccc1 (configuration not stated),> 100 µM,> 100 µM,,,> 100 µM,> 100 µM,> 100 µM,> 100 µM,,,> 100 µM,> 100 µM
O=[N+]([O-])c1ccc(N=P(c2ccccc2)(c2ccccc2)c2ccccc2)n2nnnc12,,> 100 µM,> 100 µM,,> 100 µM,> 100 µM,,> 100 µM,> 100 µM,> 100 µM,,
